Experimental data: PubChem BioAssay AID1963847 (Molecular Pharmacology Branch, DTP, NCI, 2024)
Values joined by “and” are separate entries in the source; they are usually repeats but may differ in a detail not shown here. Equal entries are not always repeated.

System: 415267-285-R-J2-PDC complex spheroid viability
Assay: Anticancer human tumor 415267-285-R-J2-PDC patient-derived breast carcinoma cell line growth inhibition [POLQ]
Settings: for viability, T/C: stronger effect = lower value; active = viability on the fitted dose curve at most 10% of control; inactive = the rest
Protocol: Multicellular complex tumor spheroid response to Polymerase (POL) inhibitors (novobiocin, ART-558, RP6685) in combination with a variety of drugs and investigational agents in selected tumor cell lines
The POL inhibitors (novobiocin, ART-558, and RP6685) were evaluated both individually and in combination with standard of care and investigational anticancer small molecules within a complex spheroid model of solid tumors. . Complex spheroids include a stromal component modeled by human endothelial cells (HUVEC) and fibroblasts modeled by human mesenchymal stem cells (MSCs). The concentration ranges selected for each drug and investigational agent were based upon clinically achievable concentrations if the clinical Cmax of the agent was known.
Compounds. The drugs and investigational agents: novobiocin (NSC847541), ART-558 (NSC835418), RP-6685 (NSC848927), peposertib (NSC802822), ceralasertib (NSC780249), elimusertib (NSC800525), camonsertib (NSC841442), AZD-1390 (NSC803789), olaparib (NSC753686), talazoparib (NSC767125), rucaparib (NSC756644), sotorasib (NSC818433), MRTX-1133 (NSC836407), SN-38 (NSC673596), topotecan (NSC609699), epotoside (NSC141540), doxorubicin (NSC123127), gemcitabine (NSC613327), 5-fluorouracil (NSC19893), paclitaxel (NSC125973), vemurafenib (NSC761431), MSA-2 (NSC828583), SN-011 (NSC837082), adavosertib (NSC754352), prexasertib (NSC758257), carboplatin (NSC241240) and oxaliplatin (NSC266046), were obtained from the National Cancer Institute (NCI) Developmental Therapeutics Program Chemical Repository (21). The FDA-approved anticancer drug set is available from the Developmental Therapeutics Program at https://dtp.cancer.gov/organization/dscb/obtaining/. […] The stock solutions were prepared in dimethyl sulfoxide (DMSO, Sigma-Aldrich, St. Louis, MO, cat. D2650), except for the platinum compounds which were prepared in saline (Quality Biological, Gaithersburg, MD, cat. 114-055-101), at 800-fold the tested concentration and stored at -70 degrees C prior to their use. All drugs and investigational agents were tested over a range starting from a high concentration at or near the clinical Cmax and decreasing in half-log increments. If the clinical Cmax for an agent had not been determined, the highest concentration tested was 10 microM, except for SN-38, which was tested at a high concentration of 1 microM.
Cell Culture. All cells were maintained in an incubator at 37 degrees C and 5% CO2 with 95% humidity. The PDC lines were cultured according to standard operating procedures established by the NCI PDMR (https://pdmr.cancer.gov). Table 3 of the manuscript, lists the cell lines along with the number of the three cell types plated to form the mct-spheroids and media for tumor cell growth. After thawing, all PDC lines, except 997537-175-T-J1-PDC and 415267-285-R-J2-PDC, were cultured in Matrigel-coated flasks prepared with a working solution of 1X Ham's F-12 nutrient mix, without supplementation (Thermo Fisher Scientific, cat. 11765054), 100 U/mL penicillin-streptomycin (Thermo Fisher Scientific, cat. 15140122), and 2.5% Matrigel (Corning Inc., Corning, NY, cat. 354248) for the first three passages. The two PDC lines 997537-175-T-J1-PDC and 415267-285-R-J2-PDC were cultured on uncoated flasks. The 857933-349-R-J2-PDC line was cultured in 6C/Colon 1B media containing advanced DMEM/F-12 (Thermo Fisher Scientific, cat. 12634028), 10 mM HEPES (Thermo Fisher Scientific, cat. 15630080), 1X GlutaMAX supplement (Thermo Fisher Scientific, cat. 35050061), 0.1 mg/mL primocin (InvivoGen, San Diego, CA, cat. ant-pm-2), 10% defined fetal bovine serum, heat inactivated (HyClone Laboratories Inc., Logan, UT, cat. SH30070.03HI), 50% L-WRN conditioned media (ATCC, cat. CRL-3276), 1.25 mM N-Acetyl-L-cysteine (Sigma-Aldrich, cat. A9165), 10 mM nicotinamide (Sigma-Aldrich, cat. N0636), 1X B-27 supplement (Thermo Fisher Scientific, cat. 17504044), 1X N-2 supplement (Thermo Fisher Scientific, cat. […]
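Also: spheroids exposed to compounds for one week before readout.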
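For viability, T/C in this document: luminescence used as stand-in measure of viable cells.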

COc1cccc(OCCCN)c1-c1cc(Nc2cnc(C#N)cn2)n[nH]1
inactive: viability, T/C (compound 0.00316 µM) 36.5% and 110% and 99.9%
< 3.16 nM and 7.96 nM and 7.26 nM: IC50 (curve of compound)
active: viability, T/C (compound 0.0316 µM) 6.92% and 6.25% and 7.08% | viability, T/C (compound 0.1 µM) 6.87% and 6.41% and 5.7% | viability, T/C (compound 0.316 µM) 6.1% and 4.51% and 5.49% | viability, T/C (compound 1 µM) 4.67% and 5.09% and 3.72%

CCc1c2c(nc3ccc(O)cc13)-c1cc3c(c(=O)n1C2)COC(=O)[C@]3(O)CC + Nc1ccc(C#CCN(C(=O)Cc2ncc(C(F)(F)F)cc2C(F)(F)F)c2ccc(F)cc2)nn1
3.71 nM: IC50 (curve of first compound, second compound 0.0316 µM)
3.49 nM: IC50 (curve of first compound, second compound 0.316 µM)
inactive: viability, T/C (second compound 0.0316 µM, first compound 0.00316 µM) 56.2% | viability, T/C (second compound 0.0316 µM, first compound 0.01 µM) 12.2% | viability, T/C (second compound 0.1 µM, first compound 0.00316 µM) 63.5% | viability, T/C (second compound 0.1 µM, first compound 0.01 µM) 10.5% | viability, T/C (second compound 0.316 µM, first compound 0.00316 µM) 53.6% | viability, T/C (second compound 0.316 µM, first compound 0.01 µM) 11.3% | viability, T/C (second compound 1 µM, first compound 0.00316 µM) 46.9% | viability, T/C (second compound 3.16 µM, first compound 0.00316 µM) 42.7% | viability, T/C (second compound 3.16 µM, first compound 0.01 µM) 9.28% | viability, T/C (second compound 10 µM, first compound 0.00316 µM) 32.5% | viability, T/C (second compound 10 µM, first compound 0.01 µM) 9.81%
< 3.16 nM: IC50 (curve of first compound, second compound 1 µM) | IC50 (curve of first compound, second compound 3.16 µM) | IC50 (curve of first compound, second compound 10 µM)
4.23 nM: IC50 (curve of first compound, second compound 0.1 µM)
active: viability, T/C (second compound 0.0316 µM, first compound 0.0316 µM) 4.64% | viability, T/C (second compound 0.0316 µM, first compound 0.1 µM) 3.13% | viability, T/C (second compound 0.0316 µM, first compound 0.316 µM) 1.82% | viability, T/C (second compound 0.0316 µM, first compound 1 µM) 1.11% | viability, T/C (second compound 0.1 µM, first compound 0.0316 µM) 4.81% | viability, T/C (second compound 0.1 µM, first compound 0.1 µM) 3.2% | viability, T/C (second compound 0.1 µM, first compound 0.316 µM) 2.14% | viability, T/C (second compound 0.1 µM, first compound 1 µM) 1.01% | viability, T/C (second compound 0.316 µM, first compound 0.0316 µM) 4.02% | viability, T/C (second compound 0.316 µM, first compound 0.1 µM) 2.64% | viability, T/C (second compound 0.316 µM, first compound 0.316 µM) 2.39% | viability, T/C (second compound 0.316 µM, first compound 1 µM) 1.12% | viability, T/C (second compound 1 µM, first compound 0.01 µM) 9.28% | viability, T/C (second compound 1 µM, first compound 0.0316 µM) 4.2% | viability, T/C (second compound 1 µM, first compound 0.1 µM) 3.14% | viability, T/C (second compound 1 µM, first compound 0.316 µM) 2.27% | viability, T/C (second compound 1 µM, first compound 1 µM) 0.96% | viability, T/C (second compound 3.16 µM, first compound 0.0316 µM) 5.9% | viability, T/C (second compound 3.16 µM, first compound 0.1 µM) 3.54% | viability, T/C (second compound 3.16 µM, first compound 0.316 µM) 2.55% | viability, T/C (second compound 3.16 µM, first compound 1 µM) 0.98% | viability, T/C (second compound 10 µM, first compound 0.0316 µM) 4.81% | viability, T/C (second compound 10 µM, first compound 0.1 µM) 2.88% | viability, T/C (second compound 10 µM, first compound 0.316 µM) 2.6% | viability, T/C (second compound 10 µM, first compound 1 µM) 1.04%

CCc1cc2c(N3CCc4c(cc(Cn5ccnc5)cc4-c4cn(C)nc4C(F)(F)F)C3=O)ccnc2c(OC)n1
> 10000 nM: IC50 (curve of compound)
inactive: viability, T/C (compound 0.0316 µM) 82.8% and 92.9% and 84.3% | viability, T/C (compound 0.1 µM) 82.9% and 92.8% and 96.7% | viability, T/C (compound 0.316 µM) 85.8% and 89.2% and 90.2% | viability, T/C (compound 1 µM) 83.7% and 94.3% and 90% | viability, T/C (compound 3.16 µM) 82.2% and 82.6% and 86.5% | viability, T/C (compound 10 µM) 75.7% and 84.4% and 75.4%

CC(C)n1c(=O)n(C)c2cnc3cc(F)c(-c4ccc(OCCCN5CCCCC5)nc4)cc3c21
inactive: viability, T/C (compound 0.0316 µM) 92.3% and 106% and 90.9% | viability, T/C (compound 0.1 µM) 97% and 105% and 101% | viability, T/C (compound 0.316 µM) 102% and 115% and 91.9% | viability, T/C (compound 1 µM) 112% and 121% and 108% | viability, T/C (compound 3.16 µM) 110% and 108% and 96.3% | viability, T/C (compound 10 µM) 83.6% and 103% and 97.1%
> 10000 nM: IC50 (curve of compound)

Cc1cccc(N(C)C(=O)C2C(O)CCN2c2nc(C)cc(C(F)(F)F)c2C#N)c1 (stereo not given)
> 10000 nM: IC50 (compound alone, run of 01/08/2024) | IC50 (compound alone, run of 01/19/2024)
inactive: viability, T/C (compound 0.0316 µM) 99.1% [middle of 13 runs] | viability, T/C (compound 0.1 µM) 100% [middle of 13 runs] | viability, T/C (compound 0.316 µM) 102% [middle of 13 runs] | viability, T/C (compound 1 µM) 103% [middle of 13 runs] | viability, T/C (compound 3.16 µM) 104% [middle of 13 runs] | viability, T/C (compound 10 µM) 98.5% [middle of 13 runs]
